Assay results as given in patent publication US20230416168A1 (EUROCHEM ANTWERPEN, priority 2020, published 2023).
pIC50: −log10 of the molar value. “Also recorded” adds a separate entry of the source.

How the values were obtained:
[1] = tested on: Nitrosomonas europaea; assay: Nitrification inhibition assay with Nitrosomonas europaea (nitrite level after 24 h); assay type: cell-based; conditions: for pIC50 / activity at 100 µM: Nitrosomonas europaea; for pIC50: 8-point dose response, 2 to 100 μM, read-out: IC50; for activity at 100 µM: tested concentration 100 μM, 24 h, normalized to DMSO (100%) and 100 μM DMP (0%), read-out: Nitrification (%) at tested concentration (0 = maximum activity)
Protocol: (§1) The compounds of formula (I) and (II) and (III)/(IV) were tested for their nitrification inhibition effect in two screens, using assays with the nitrifying bacteria N. europaea and N. multiformis. In practice, ammonium and candidate nitrification inhibitors (at 100 μM) were added to a dense bacterial culture in multiwell culture plates and after 24 h of incubation, the nitrite level was measured. To normalize for differences between batches of cultures and multiwell culture plates, for each well a relative nitrification was calculated that was normalized towards both the negative and positive controls (see “Material and Methods” below for full details).
(§2) Nitrite (NO2−) was measured using the Griess reagent (Product number: G4410, Griess reagent (modified), Sigma-Aldrich). Equal volumes of the sample or a diluted sample and the Griess reagent were mixed a transparent flat bottom multi-well plate and incubated in the dark at room temperature for 10 minutes. Absorbance values at 540 nm were measured spectrophotometrically (EnVision, Perkin Elmer®) and used to calculate the [NO2−] by use of a standard curve.
To prepare a high-throughput nitrification inhibition assay using N. europaea, late-log phase cultures were subcultivated two days before the assay. Just before the assay, the cultures were 5 times overconcentrated with fresh growth medium after centrifugation (4000 rpm, 15 min, 5° C.) in 50 mL centrifuge tubes (Cat. No. 430829, CentriStar™ Conical Centrifuge Tubes, Corning®). Per batch, all the cultures were pooled in one sterile Schott bottle and subsequently dispensed into 384-well plates (Cat. No. 781086, CELL-STAR® plate, Greiner Bio-One; 50 μl/well) by use of a dispenser (Multidrop™ Combi Reagent Dispenser, Thermo Scientific™) that was first flushed with growth medium. Specifically for the high-throughput screen for new nitrification inhibitors, 0.5 μl of 99.99% DMSO (negative control—final concentration 1%) was added to the outer two columns on the left side of the plate and 0.5 μl of 10 mM DMP (3,4-dimethylpyrazole, positive control—final concentration 100 μM) was added to the outer two columns on the right side manually. Finally, 0.5 μl of candidate nitrification inhibitors (5 mM stock solutions in 99.99% DMSO—final concentration 50 μM) were added to the central wells using a pin tool on a Tecan robot (Freedom EVO®, Tecan). In between additions, the pins were washed in sequence with 99.5% DMSO, MilliQ water and 100% ethanol and air-dried. All plates were separately wrapped in Parafilm. Stacks of 4 plates were put on top of a 96-well plate filled with 100 μl MilliQ per well, covered with aluminum foil and shaken at 150 rpm at 28° C. 24 h later, NO2− production was assessed. For this, the samples were first 200 times diluted by pipetting 1.5 μl of samples into 300 μl of fresh growth medium in intermediate plates (Cat. No. 353077, Falcon® 96-well Clear Round Bottom Microplate, Corning®), to then mix 15 μl of the diluted samples with 15 μl Griess reagent in the wells of a transparent, flat bottom 384-well plate (Cat. No. X^7001, Low Profile Microplate, Molecular Devices) that was measured spectrophotometrically at 540 nm (EnVision, Perkin Elmer®).
(§3) To assess the efficacy of the compounds (in terms of nitrification inhibition) and to enable comparison between plates and batches of cultures, we calculated the relative nitrification. More in detail, all nitrite results were normalized towards both a negative control, containing no compound, and a positive control, containing the benchmark (100 μM DMP), using Equation 1. This normalization was done per multi-well plate and each plate contained 32 positive and 32 negative controls.
IC50 values, that is the concentration that inhibits 50% of the nitrification, were calculated after fitting a logistic curve to 8-point dose response data, using doses between 2 and 100 μM with 1.75 fold steps. […]

[2] = tested on: Nitrosospira multiformis; assay: Nitrification inhibition assay with Nitrosospira multiformis (nitrite level after 24 h); assay type: cell-based; conditions: for pIC50 / activity at 100 µM: Nitrosospira multiformis; for pIC50: 8-point dose response, 2 to 100 μM, read-out: IC50; for activity at 100 µM: tested concentration 100 μM, 24 h, normalized to DMSO (100%) and 100 μM DMP (0%), read-out: Nitrification at tested concentration (0 = maximum activity)
Protocol: as §1, §2
Cultures were first 5 times overconcentrated in fresh 181-medium by centrifugation (4000 rpm, 15 min, 5° C.) in 50 mL centrifuge tubes (Cat. No. 430829, CentriStar™ Conical Centrifuge Tubes, Corning®). Per batch, all the cultures were pooled in one sterile Schott bottle and subsequently dispensed in 384-well plates (Cat. No. 781086, CELLSTAR® plate, Greiner BioOne; 50 μl/well) by use of a dispenser (Multidrop™ Combi Reagent Dispenser, Thermo Scientific™) that was first flushed with 181-medium. 0.5 μl of 99.99% DMSO (negative control—final concentration […] was added to the outer two columns on the left side of the plate and 0.5 μl of 10 mM DMP (3,4-dimethylpyrazole, positive control—final concentration 100 μM) was added to the outer two columns on the right side manually. Finally, 0.5 μl of candidate nitrification inhibitors (5 mM stock solutions in 99.99% DMSO—final concentration 50 μM) were added to the central wells using a pin tool on a Tecan robot (Freedom EVO®, Tecan). In between additions, the pins were washed in sequence with 99.5% DMSO, MilliQ water and 100% ethanol and air-dried. All plates were separately wrapped in Parafilm. Stacks of 4 plates were put on top of a 96-well plate filled with 100 μl MilliQ per well, covered with aluminum foil and shaken (±150 rpm) at 30° C. 24 h later, NO2− production was assessed. For this, the samples were first 100 times diluted by pipetting 3 μl of samples into 300 μl fresh growth medium in intermediate plates (Cat. No. 353077, Falcon® 96-well Clear Round Bottom Microplate, Corning®) to then mix 15 μl of the diluted samples with 15 μl Griess reagent in the wells of a transparent, flat bottom 384-well plate (Cat. No. X^7001, Low Profile Microplate, Molecular Devices) that was measured spectrophotometrically at 540 nm (EnVision, Perkin Elmer®).
as §3
IC50 values, that is the concentration that inhibits 50% of the nitrification, were calculated after fitting a logistic curve to 8-point dose response data, using doses between 2 and 100 μM with 1.75 fold steps. If a concentration of 2 μM already inhibited nitrification, the IC50 value could not be calculated. In that case, IC50 values represent the dose that gives inhibition closest to 50%.
The compounds of formula (I) and (II) were tested for their nitrification inhibition effect in two screens, using assays with the nitrifying bacteria N. europaea and N. multiformis. […]

[3] = tested on: Merelbeke soil; assay: In soil nitrification inhibition assay, Merelbeke soil; conditions: for inhibition of ammonium consumption in soil, in words: 50 μM, one week of treatment; for inhibition at 50 µM: soil, 168 h, 7 days, read-out: % Nitrification inhibition in soil (7 days of incubation, Merelbeke soil)
Protocol: Top layer (0 to 10 cm) soil samples were collected from different fields in Belgium (Merelbeke and Moorslede). Vegetation on the field trial was removed and samples were taken from different plots. All soil samples were mixed and sieved (mesh size 2.8 mm) to filter large debris and homogenize soil. The soil was stored at 5° C. in plastic containers covered with Saran foil to prevent changes in microbial community composition and to maintain the original soil water content. Soil water content was determined by drying 20 g soil for 48 h in a 60° C. oven and measuring weight before and after drying. Based on the soil water content (±20%), compound solutions were prepared so that addition of 200 μl compound and 200 μl NH4Cl solution would result in a final compound concentration of 50 μM and a final NH4^+ concentration of 10 mM. Per treatment, 5 small pots were filled with 20 g soil. Next, the soil was treated first with the respective compound solution and then with the NH4Cl solution. Per tray, positive (50 μM DMP) and negative controls (DMSO) were included. Pots were incubated at 21° C. (6 a.m. to 10 p.m. light) for 7 days. Demineralized water was added to the soil every 2 to 3 days to a soil weight of 20 g. In the end, each sample of 20 g soil was dissolved in 100 ml 1M KCl and shaken for 1 hour, followed by filtration through Whatmann® paper. The filtrate was used to measure pH, NH4^+ and NO3− concentrations. The nitrification inhibitors were applied in a nitrification inhibition assay using agricultural soil. In practice, ammonium with or without the new nitrification inhibitors was added to soil from a field in Merelbeke (Belgium). The ammonium level was measured at the start of the experiment and at the end of the experiment, after one week of incubation. A nitrification inhibition percentage was calculated by comparing the reduction in ammonium level with the nitrification inhibitor to the reduction in ammonium without the nitrification inhibitor. Ammonium was added to soil with a high nitrification activity and treated with the nitrification inhibitors (final concentration of 50 μM). […] This validates that the new nitrification inhibitors are effectively inhibiting ammonia oxidation by soil communities.

[4] = tested on: NH3 or NH2OH oxidation in N. europaea cells; assay: Nitrosomonas europaea ammonia vs. hydroxylamine oxidation assay; assay type: cell-based; conditions: for Nitrification from NH2OH (% compared to DMSO): 1 mM NH2OH as N-source; for Nitrification from NH2OH (% compared to DMSO) / Nitrification from NH3 (% compared to DMSO): compounds 50 μM, NO2- after 30 min; for Nitrification from NH3 (% compared to DMSO): NH4+ 1 mM as N-source
Protocol: Two days old, late-log phase cultures with a NO2− concentration between 10 and 20 mM were washed 3 times in fresh growth medium (without N) and finally 4 times overconcentrated via centrifugation (4000 rpm, 15 min, 4° C.). Transparent, flat bottom 96-well plate (Cat. No. 353072, Falcon® 96 Well Clear Flat Bottom Microplate, Corning®) were filled with 150 μl culture per well using a dispenser (Multidrop™ Combi Reagent Dispenser, Thermo Scientific™). Compounds (final concentration 50 μM) were added in triplicate to the multi-well plate by use of a Tecan robot (Freedom EVO®, Tecan). Thiourea (positive control for inhibition of NH3 oxidation—final concentration 100 μM) and phenylhydrazine hydrochloride (positive control for inhibition of NH2OH oxidation—final concentration 1 mM) were added to the outer two columns. Each plate was made in duplicate to add either 500 μM (NH4)2SO4 (final [NH4+]=1 mM) or 1 mM NH2OH. All plates were separately wrapped in Parafilm. Stacks of 4 plates were put on top of a 96-well plate filled with 100 μl MilliQ per well, covered with aluminum foil and shaken (±150 rpm) at 28° C. To prevent read-out of secondary effects on NO2− production, NO2− was measured only 30 min later. For this, the samples were first 2 times diluted by pipetting 15 μl in 15 μl fresh growth medium in 96-well intermediate plates (Cat. Ref. PCR-96-FS-C, 96-well PCR Microplate, Axygen®) to then mix 15 μl of the diluted samples with 15 μl Griess reagent in the wells of a transparent, flat bottom 384-well plate (Cat. No. X^7001, Low Profile Microplate, Molecular Devices) that was measured spectrophotometrically at 540 nm (EnVision, Perkin Elmer®).
To get insights on the targeted metabolic pathway and to discriminate between compounds that specifically affect NH3 oxidation or that affect another pathway, three representative novel nitrification inhibitors (Examples 1, 5 and 6) were tested in the “ammonia vs hydroxylamine oxidation assay” in which NO2− production from NH3 was compared with NO2− production from NH2OH.

pIC50 [1] | pIC50 [2] | SMILES | activity at 100 µM [1] [%] | activity at 100 µM [2] [%] | inhibition of ammonium consumption in soil, in words [3] | inhibition at 50 µM [3] [%] | Nitrification from NH2OH (% compared to DMSO) [4] [%] | effect on hydroxylamine (NH2OH) oxidation, in words ([4]; 30 minutes assay, listed as DMP) | Nitrification from NH3 (% compared to DMSO) [4] [%] | nitrification inhibition, in words [1] | nitrification inhibition, in words [2]
< 4.00 | > 5.00 | O=C(CSC1=NCCS1)N1CCCC1 [Example 10] | 81 | 6 | significant inhibition | 7 |  |  |  |  | 
5.22 | 4.85 | Cc1c[nH]nc1C [Example C1, 3,4-dimethylpyrazole, reference compound] | 0 | 0 |  |  | 56 | reduced NH2OH oxidation; also recorded: limited effect | 27 |  | 
4.85 | > 5.46 | CN(Cc1c(F)cccc1Cl)CN1CCOC1=S [Example 6, 3-[[(2-chloro-6-fluorophenyl)methyl-methylamino]methyl]-1,3-oxazolidine-2-thione] | 0 | 0 |  |  | 80 |  | 18 | strong nitrification inhibition | strong nitrification inhibition
< 4.00 | > 5.22 | CCC1CCCCN1C(=O)CSC1=NCCS1 (stereo not drawn) [Example 9] | 68 | 0 | significant inhibition | 10 |  |  |  |  | 
